The record followed here is US8222246B2, “Substituted isoxazoles” (Hoffmann-La Roche Inc., priority 2009, dated 2012).

The target of this experiment is T1, GABA A α5 (α5β3γ2) (Homo sapiens, UniProt P18507+P31644).
T1 construct: expressed in transfected cells; host or cells: HEK293 (transiently transfected), membranes
The experiment can be described thus: [3H]flumazenil competition binding assay, human GABA A α5 receptors in HEK293 cells. Particulars: competition for [3H]flumazenil (0.5 nM); HEK293 cells expressing human (transiently transfected) receptors; means of two determinations; read-out: hKi GABA A α5. How it is done:
Membrane Preparation and Binding Assay
The affinity of compounds at GABA A receptor subtypes was measured by competition for [3H]flumazenil (85 Ci/mmol; Roche) binding to HEK293 cells expressing rat (stably transfected) or human (transiently transfected) receptors of composition α1β3γ2, α2β3γ2, α3β3γ2 and α5β3γ2.
Cell pellets were suspended in Krebs-tris buffer (4.8 mM KCl, 1.2 mM CaCl2, 1.2 mM MgCl2, 120 mM NaCl, 15 mM Tris; pH 7.5; binding assay buffer), homogenized by polytron for ca. 20 sec on ice and centrifuged for 60 min at 4° C. (50000 g; Sorvall, rotor: SM24=20000 rpm). The cell pellets were resuspended in Krebs-tris buffer and homogenized by polytron for ca. 15 sec on ice. Protein was measured (Bradford method, Bio-Rad) and aliquots of 1 mL were prepared and stored at −80° C.
Radioligand binding assays were carried out in a volume of […] (96-well plates) which contained […] of cell membranes, [3H]flumazenil at a concentration of 1 nM for α1, α2, α3 subunits and 0.5 nM for α5 subunits and the test compound in the range of […]. Nonspecific binding was defined by 10^−5 M diazepam and typically represented less than 5% of the total binding. Assays were incubated to equilibrium for 1 hour at 4° C. and harvested onto GF/C uni-filters (Packard) by filtration using a Packard harvester and washing with ice-cold wash buffer (50 mM Tris; pH 7.5). After drying, filter-retained radioactivity was detected by liquid scintillation counting. Ki values were calculated using Excel-Fit (Microsoft) and are the means of two determinations.
Representative test results, obtained by the above described assay measuring binding affinity to HEK293 cells expressing human (h) receptors, are shown in table 1 below.

On to `O=C(N[C@H]1CCC[C@@H]1O)c1ccc(OCc2c(-c3ccc(F)cc3)noc2CO)nc1` (racemic) [Example 10, 6-[3-(4-Fluoro-phenyl)-5-hydroxymethyl-isoxazol-4-ylmethoxy]-N-((1R,2R)-2-hydroxy-cyclopentyl)-nicotinamide or 6-[3-(4-Fluoro-phenyl)-5-hydroxymethyl-isoxazol-4-ylmethoxy]-N-((1S,2S)-2-hydroxy-cyclopentyl)-nicotinamide], for which the Ki is 1.6 nM.
In the case of `O=C(N[C@@H]1CCC[C@H]1O)c1ccc(OCc2c(-c3ccc(Cl)cc3)noc2CO)nc1` (single isomer, unassigned) [Example 26, 6-[3-(4-Chloro-phenyl)-5-hydroxymethyl-isoxazol-4-ylmethoxy]-N-((1S,2S)-2-hydroxy-cyclopentyl)-nicotinamide or 6-[3-(4-Chloro-phenyl)-5-hydroxymethyl-isoxazol-4-ylmethoxy]-N-((1R,2R)-2-hydroxy-cyclopentyl)-nicotinamide] it was 1.2 nM; in that of `O=C(N[C@H]1CCC[C@@H]1O)c1ccc(OCc2c(-c3ccc(Cl)cc3)noc2CO)nc1` (single isomer, unassigned) [Example 27, 6-[3-(4-Chloro-phenyl)-5-hydroxymethyl-isoxazol-4-ylmethoxy]-N-([1R,2R]-2-hydroxy-cyclopentyl)-nicotinamide or 6-[3-(4-Chloro-phenyl)-5-hydroxymethyl-isoxazol-4-ylmethoxy]-N-([1S,2S]-2-hydroxy-cyclopentyl)-nicotinamide], 0.6 nM.
In the case of `CC(C)NC(=O)c1ccc(OCc2c(-c3ccccc3)noc2CO)nc1` [Example 1, 6-(5-Hydroxymethyl-3-phenyl-isoxazol-4-ylmethoxy)-N-isopropyl-nicotinamide] it was 2.2 nM.
On to `O=C(NCCO)c1ccc(OCc2c(-c3ccccc3)noc2CO)nc1` [Example 2, N-(2-Hydroxy-ethyl)-6-(5-hydroxymethyl-3-phenyl-isoxazol-4-ylmethoxy)-nicotinamide], for which the Ki was determined as 1.6 nM.
The figure for `O=C(c1ccc(OCc2c(-c3ccc(F)cc3)noc2CO)nc1)N1CCS(=O)(=O)CC1` [Example 3, (1,1-Dioxo-1,6-thiomorpholin-4-yl)-{6-[3-(4-fluoro-phenyl)-5-hydroxymethyl-isoxazol-4-ylmethoxy]-pyridin-3-yl}-methanone] is 8.6 nM; for `CC(C)NC(=O)c1ccc(OCc2c(-c3ccc(F)cc3)noc2CO)nc1` [Example 4, 6-[3-(4-Fluoro-phenyl)-5-hydroxymethyl-isoxazol-4-ylmethoxy]-N-isopropyl-nicotinamide] it is 1.1 nM; for `O=C(NC1CCOCC1)c1ccc(OCc2c(-c3ccc(F)cc3)noc2CO)nc1` [Example 5, 6-[3-(4-Fluoro-phenyl)-5-hydroxymethyl-isoxazol-4-ylmethoxy]-N-(tetrahydro-pyran-4-yl)-nicotinamide] it is 1.3 nM.
Take `O=C(NCC1CC1)c1ccc(OCc2c(-c3ccc(F)cc3)noc2CO)nc1` [Example 6, N-Cyclopropylmethyl-6-[3-(4-fluoro-phenyl)-5-hydroxymethyl-isoxazol-4-ylmethoxy]-nicotinamide]: the Ki is 1.7 nM.
Regarding `O=C(NCC(F)(F)F)c1ccc(OCc2c(-c3ccc(F)cc3)noc2CO)nc1` [Example 7, 6-[3-(4-Fluoro-phenyl)-5-hydroxymethyl-isoxazol-4-ylmethoxy]-N-(2,2,2-trifluoro-ethyl)-nicotinamide], the Ki came to 1.3 nM.
In the case of `O=C(NC1CC1)c1ccc(OCc2c(-c3ccc(F)cc3)noc2CO)nc1` [Example 8, N-Cyclopropyl-6-[3-(4-fluoro-phenyl)-5-hydroxymethyl-isoxazol-4-ylmethoxy]-nicotinamide] it was 1.7 nM.
Consider `COCCNC(=O)c1ccc(OCc2c(-c3ccc(F)cc3)noc2CO)nc1` [Example 9, 6-[3-(4-Fluoro-phenyl)-5-hydroxymethyl-isoxazol-4-ylmethoxy]-N-(2-methoxy-ethyl)-nicotinamide], for which the Ki was determined as 4.1 nM.
The figure for `CC(NC(=O)c1ccc(OCc2c(-c3ccc(F)cc3)noc2CO)nc1)C(F)(F)F` (centres unmarked) [Example 11, 6-[3-(4-Fluoro-phenyl)-5-hydroxymethyl-isoxazol-4-ylmethoxy]-N-(2,2,2-trifluoro-1-methyl-ethyl)-nicotinamide] is 1.4 nM; for `CC(C)(CO)NC(=O)c1ccc(OCc2c(-c3ccc(F)cc3)noc2CO)nc1` [Example 12, 6-[3-(4-Fluoro-phenyl)-5-hydroxymethyl-isoxazol-4-ylmethoxy]-N-(2-hydroxy-1,1-dimethyl-ethyl)-nicotinamide] it is 10.1 nM; for `O=C(NCC(F)(F)C(F)(F)F)c1ccc(OCc2c(-c3ccc(F)cc3)noc2CO)nc1` [Example 13, 6-[3-(4-Fluoro-phenyl)-5-hydroxymethyl-isoxazol-4-ylmethoxy]-N-(2,2,3,3,3-pentafluoro-propyl)-nicotinamide] it is 3.4 nM.
Turning to `CC[C@H](CO)NC(=O)c1ccc(OCc2c(-c3ccc(F)cc3)noc2CO)nc1` [Example 14, 6-[3-(4-Fluoro-phenyl)-5-hydroxymethyl-isoxazol-4-ylmethoxy]-N-((R)-1-hydroxymethyl-propyl)-nicotinamide], the Ki came to 3.5 nM.
In the case of `CC[C@@H](CO)NC(=O)c1ccc(OCc2c(-c3ccc(F)cc3)noc2CO)nc1` [Example 15, 6-[3-(4-Fluoro-phenyl)-5-hydroxymethyl-isoxazol-4-ylmethoxy]-N-((S)-1-hydroxymethyl-propyl)-nicotinamide] it was 0.6 nM; in that of `Cn1cc(NC(=O)c2ccc(OCc3c(-c4ccc(F)cc4)noc3CO)nc2)cn1` [Example 16, 6-[3-(4-Fluoro-phenyl)-5-hydroxymethyl-isoxazol-4-ylmethoxy]-N-(1-methyl-1H-pyrazol-4-yl)-nicotinamide], 0.9 nM; in that of `CC1(NC(=O)c2ccc(OCc3c(-c4ccc(F)cc4)noc3CO)nc2)COC1` [Example 17, 6-[3-(4-Fluoro-phenyl)-5-hydroxymethyl-isoxazol-4-ylmethoxy]-N-(3-methyl-oxetan-3-yl)-nicotinamide], 1.8 nM.
For `O=C(c1ccc(OCc2c(-c3ccc(Cl)cc3)noc2CO)nc1)N1CCS(=O)(=O)CC1` [Example 18, {6-[3-(4-Chloro-phenyl)-5-hydroxymethyl-isoxazol-4-ylmethoxy]-pyridin-3-yl}-(1,1-dioxo-1-thiomorpholin-4-yl)-methanone], the Ki was 3.5 nM.
The figure for `CC(C)NC(=O)c1ccc(OCc2c(-c3ccc(Cl)cc3)noc2CO)nc1` [Example 19, 6-[3-(4-Chloro-phenyl)-5-hydroxymethyl-isoxazol-4-ylmethoxy]-N-isopropyl-nicotinamide] is 0.4 nM; for `O=C(NC1CC1)c1ccc(OCc2c(-c3ccc(Cl)cc3)noc2CO)nc1` [Example 20, 6-[3-(4-Chloro-phenyl)-5-hydroxymethyl-isoxazol-4-ylmethoxy]-N-cyclopropyl-nicotinamide] it is 1 nM; for `O=C(NCC(F)(F)F)c1ccc(OCc2c(-c3ccc(Cl)cc3)noc2CO)nc1` [Example 21, 6-[3-(4-Chloro-phenyl)-5-hydroxymethyl-isoxazol-4-ylmethoxy]-N-(2,2,2-trifluoro-ethyl)-nicotinamide] it is 2 nM.
The figure for `CN(C)C(=O)c1ccc(OCc2c(-c3ccc(Cl)cc3)noc2CO)nc1` [Example 22, 6-[3-(4-Chloro-phenyl)-5-hydroxymethyl-isoxazol-4-ylmethoxy]-N,N-dimethyl-nicotinamide] is 43.4 nM; for `CC(C)(CO)NC(=O)c1ccc(OCc2c(-c3ccc(Cl)cc3)noc2CO)nc1` [Example 23, 6-[3-(4-Chloro-phenyl)-5-hydroxymethyl-isoxazol-4-ylmethoxy]-N-(2-hydroxy-1,1-dimethyl-ethyl)-nicotinamide] it is 3.9 nM; for `Cn1cc(NC(=O)c2ccc(OCc3c(-c4ccc(Cl)cc4)noc3CO)nc2)cn1` [Example 24, 6-[3-(4-Chloro-phenyl)-5-hydroxymethyl-isoxazol-4-ylmethoxy]-N-(1-methyl-1H-pyrazol-4-yl)-nicotinamide] it is 0.7 nM.
`C[C@H](NC(=O)c1ccc(OCc2c(-c3ccc(Cl)cc3)noc2CO)nc1)C(F)(F)F` [Example 25, 6-[3-(4-Chloro-phenyl)-5-hydroxymethyl-isoxazol-4-ylmethoxy]-N-([S]-2,2,2-trifluoro-1-methyl-ethyl)-nicotinamide]: the Ki was 1.7 nM.
`CC(C)NC(=O)c1ccc(OCc2c(-c3ccc(F)c(F)c3)noc2CO)nc1` [Example 28, 6-[3-(3,4-Difluoro-phenyl)-5-hydroxymethyl-isoxazol-4-ylmethoxy]-N-isopropyl-nicotinamide]: the Ki worked out at 1.5 nM.
With `O=C(NC1CCOCC1)c1ccc(OCc2c(-c3ccc(F)c(F)c3)noc2CO)nc1` [Example 29, 6-[3-(3,4-Difluoro-phenyl)-5-hydroxymethyl-isoxazol-4-ylmethoxy]-N-(tetrahydro-pyran-4-yl)-nicotinamide], the Ki was 2 nM.
